We go through one sequence from US10221227B2, “Peptide for promoting osteogenic differentiation or vascularization and use thereof” (INDUSTRY FOUNDATION OF CHONNAM NATIONAL UNIVERSITY, priority 2015, dated 2019).

One assay concerns alkaline phosphatase. The settings on record: at 1 μg/μL of BFP 5; RT-PCR / enzyme activity kit.
Assay [1] has as its system Runx2, alkaline phosphatase, Osteopontin, collagen type 1, DLX5, and Osterix. Put plainly: Expression of osteoblast-specific genes under a fluorescent microscope using antibodies (FIG. 5). Format: cell-based. The settings on record: cells treated with BFP 5, fluorescent microscope using antibodies. The source says: An osteoblast-specific protein is expressed upon differentiation into osteoblasts. When the antibody to the protein was reacted to cells and the degree of binding was confirmed by a fluorescent microscope.

For the next assay, the system named is VEGF. Put plainly: Effect on vascularization: expression of VEGF (FIG. 9). Format: cell-based. The settings on record: cells treated with BFP 5; alongside VEGF, FGF, SDF-1a, SDF-1g.
Assay [2] deals with alkaline phosphatase and Osterix. Put plainly: Level of proteins expressed in osteoblasts (FIG. 6). Format: cell-based. The settings on record: FIG. 6, protein level.
Another assay has as its system mesenchymal stem cells. Put plainly: Measurement of mineralization by Alizarin Red staining. Format: cell-based, Balb/c mouse. The settings on record: cells added with 1 μg/μL of BFP 5; tested at 0.01, 0.1, 1 and 10 μg/μL, osteogenic differentiation medium, two additional days. The method, then:
Mesenchymal stem cells (1×10^4), which were cloned from Balb/c mouse bone marrow stromal cells) were aliquoted into 10% FBS-containing DMEM and cultured in an atmosphere (about 37° C., 5% CO2) for 3 days, and thereby the mesenchymal stem cells to be used as osteoblasts in the present experiment were prepared. Osteogenic differentiation medium (hereinafter, “ODM”) consists of DMEM which contains 50 μg/mL of ascorbic acid, 10^−8 M dexamethasone, 10 mM β-glycerophosphate, etc.
The differentiation of the mesenchymal stem cells into osteoblasts causes calcium accumulation. Here, the degree of calcium accumulation refers to the degree of differentiation of osteoblasts, and the degree of accumulation of calcium ions can be confirmed by observing the degree of staining of the cells that are stained red, via Alizarin Red staining. In this regard, the mineralization was measured via Alizarin Red staining. That is, as the differentiation into osteoblasts are promoted there are more regions that can be stained by Alizarin Red. Accordingly, the degree of osteogenic differentiation can be confirmed by adding Alizarin Red to the osteogenic differentiation medium, treating with the peptide of SEQ ID NO: 1 (BFP 5), and observing the degree of Alizarin Red staining. […]

Another assay deals with Osterix. Put plainly: Osterix expression at varied concentrations of BFP 5 (FIG. 8). Format: cell-based.

Ends that are not written are not given here.

Turning to “PPRACPTARALCEIR (cysteine pairing not given here) [SDF-1d-derived peptide consisting of 15 amino acids, named bone forming peptide 5]”, in the assay with alkaline phosphatase, the “expression of alkaline phosphatase” value is listed as “strong expression”. Moreover, in assay [1], the “expression of DLX5” value is given as “strongly expressed”, the “expression of Osteopontin” value was “strongly expressed”, the “expression of Osterix” value was “strongly expressed” and the “expression of Runx2” value is “strongly expressed”. Further, in assay [1], the “expression of alkaline phosphatase” value is on record as “strongly expressed” and the “expression of collagen type 1” value is “strongly expressed”. Further, in the assay on VEGF, the “expression of VEGF, a protein associated with vascularization” value is on record as “strong expression”. Also, in assay [2], the “Osterix protein expressed in osteoblasts” value is “strongly expressed” and the “alkaline phosphatase protein expressed in osteoblasts” value is listed as “strongly expressed”. Also, in the assay with mesenchymal stem cells, the “Alizarin Red staining (mineralization accumulated via osteogenic differentiation)” value is “strongest staining”. Moreover, in the assay on Osterix, the “concentration of BFP 5 at which expression (Osterix) is at the highest level” value was 0.1 µg/mL.
